# Data as given in US20220265629A1, “TREATMENT OF SYSTOLIC DYSFUNCTION AND HEART FAILURE WITH REDUCED EJECTION FRACTION WITH THE COMPOUND (R)-4-(1-((3-(DIFLUOROMETHYL)-1-METHYL-1H-PYRAZOL-4-YL)SULFONYL)-1-FLUOROETHYL)-N-(ISOXAZOL-3-YL)PIPERIDINE-1-CARBOXAMIDE” (MyoKardia, Inc., priority 2019, published 2022).
# Like-named read-outs stand apart in the source and are kept apart here.
# Columns and labels:
# [1] = Pharmacokinetics in beagle dogs (single doses); format: in vivo
# Description: The pharmacokinetics of Compound I have been evaluated in multiple dog studies. […] At a single dose<3 mg/kg, the observed oral bioavailability was approximately 100%. This nonlinear pharmacokinetics of Compound I was also observed in humans. […] In order to delineate the underlying mechanism responsible for the nonlinear pharmacokinetics, physiologically-based absorption models of Compound I for beagle dogs and healthy volunteers were developed and used to assess the effect of particle size on the in vivo dissolution, absorption, bioavailability, and systemic exposure of Compound I.
# Data used for Compound I physiologically-based pharmacokinetic (PBPK) model development and verification were obtained from in vivo nonclinical studies in dogs (FIG. 13), a clinical study in healthy volunteers (Example 1), and in vitro experiments (Table 20).
# cardiac actin and myosin = cardiac actin and myosin (Homo sapiens, UniProt P12883); assay: Crossbridge formation (phosphate release) and detachment (ADP release) between cardiac actin and myosin; format: biochemical
# Text: or a pharmaceutically acceptable salt thereof. […] Crossbridge formation and detachment are critical steps in each cycle of cardiac contraction. Compound I reversibly binds to myosin, increasing the number of myosin/actin crossbridges available to participate in the strongly bound state of the chemomechanical cycle and thereby increasing contraction.
# [2] = HFrEF study Part 1 (SAD Cohorts 1 and 2): plasma pharmacokinetics; format: in vivo, human; settings: for Cmax / Tmax / AUC(0-t) / AUC(0-inf) / half-life: human, plasma, oral; for AUC(0-t): read-out: AUC0-24; for Plasma concentration, Mean / Plasma concentration, Median: pooled SAD Cohorts 1 and 2
# Text: Part 1 was a randomized, crossover, DB, placebo-controlled, two-cohort, sequential ascending (oral) single-close study in ambulatory patients with heart failure. All patients received placebo and 2 or 3 active doses of Compound I. Each patient underwent sequential, single-close treatment events separated by no fewer than 5 days and no more than 14 days. Patients in Cohort 1 may also return for a fourth dosing period (open label) after the SRC reviews available data and recommends the close. Patients enrolled prior to the implementation of Amendment 1 may be offered the opportunity to return for the open-label period. Patients in Cohort 2 participated in 2 to 4 dosing periods, based on SRC decision. Patients were randomized to one of the different dosing sequences outlined in FIG. 5A. Multiple patients could be closed at the same time or during the same week depending on administrative issues, i.e., capacity and scheduling.
# For each dosing period, patients were admitted to the clinical site on Day −1. Patients were assessed for absence of exclusion criteria (e.g., new lab abnormalities and/or conditions that indicate the patient is clinically unstable). They received Compound I or placebo in the morning of Day 1 followed by serial PK and PD assessments, as well as serial safety assessments. Patients were discharged on Day 3 (i.e., ˜48 hours following Day 1 dosing). An additional outpatient plasma PK sample was taken on the morning of Day 4 at 72 hours postclose.
# Study medication consisted of Compound I 5 mg tablets, 25 mg tablets, 100 mg tablets, or matching placebo tablets. In Part 1 (SAD), Compound I or placebo was administered after an overnight fast (at least 6 hours), while in Part 2 (MAD), Compound I was administered after a 2 hour fast (Cohort A) or with food (Cohorts B, C, and D). The close was ingested with a minimum of 240 mL of water, but more water was ingested as needed. The entire close was administered over a period of up to 15 minutes. The time of close used to determine future assessments was the time the last tablet was taken. In the cohorts for Part 2 (MAD), a BID regimen was used.
# In Part 1 (SAD), patients fasted overnight (approximately 6 hours) through 4 hours postclose. With the exception of the water consumed with the close, water could be ingested until approximately 1 hour prior to dosing and approximately 1 hour after dosing. If closes were split, subjects fasted 6 hours prior to the first half-close. A light, low-fat snack could be consumed 2 hours after the first half-close and a fast continued through 2 hours after the second half-close.
# Eight patients with stable heart failure were enrolled and randomized to receive Compound I or placebo at a dose of 175, 350, 525, 450 (split close), or 550 mg (split close) in a crossover study design with four periods (A-D). All patients had heart failure with a nonischemic etiology and a mean Baseline ejection fraction of 43%. All eight subjects received placebo, 175 mg, and 350 mg (in random sequence) during Periods A to C. Six subjects elected to continue into a fourth open-label Period D, and closes received included: 350 mg (n=1), 525 mg (n=2), 450 mg (divided into 2 aliquots; n=1) and 550 mg (divided into 2 aliquots, n=2). The single doses were administered to patients under fasted conditions. The split closes were given four hours apart with patients fasting six hours prior to the first half-close and 2 hours after the second half-close, with a light snack allowed 2 hours after the first half-close. Subsequently, patients underwent extended observation, followed by a washout period. This process was repeated until each patient had received at least three closes (Compound I or placebo).
# Four subjects with stable heart failure were enrolled and randomized to receive Compound I or placebo at a dose of 400 mg (split close) or 500 mg (split close) over three periods (A-C). […]
# [3] = 175 mg, SAD Cohort 1, 175 mg (n = 8)
# [4] = 350 mg, SAD Cohort 1, 350 mg (n = 8)
# [5] = 350 mg, SAD Cohort 1, 4th dose 350 mg (n = 1)
# [6] = 400 mg, SAD Cohort 2, 400 mg split dose (n = 4)
# [7] = 450 mg, SAD Cohort 1, Split dose 450 mg (n = 1)
# [8] = 500 mg, SAD Cohort 2, 500 mg split dose (n = 4)
# [9] = 525 mg, SAD Cohort 1, 525 mg (n = 2)
# [10] = 550 mg, SAD Cohort 1, Split dose 550 mg (n = 2)
# Chain of cardiac actin and myosin (P12883 whole entry): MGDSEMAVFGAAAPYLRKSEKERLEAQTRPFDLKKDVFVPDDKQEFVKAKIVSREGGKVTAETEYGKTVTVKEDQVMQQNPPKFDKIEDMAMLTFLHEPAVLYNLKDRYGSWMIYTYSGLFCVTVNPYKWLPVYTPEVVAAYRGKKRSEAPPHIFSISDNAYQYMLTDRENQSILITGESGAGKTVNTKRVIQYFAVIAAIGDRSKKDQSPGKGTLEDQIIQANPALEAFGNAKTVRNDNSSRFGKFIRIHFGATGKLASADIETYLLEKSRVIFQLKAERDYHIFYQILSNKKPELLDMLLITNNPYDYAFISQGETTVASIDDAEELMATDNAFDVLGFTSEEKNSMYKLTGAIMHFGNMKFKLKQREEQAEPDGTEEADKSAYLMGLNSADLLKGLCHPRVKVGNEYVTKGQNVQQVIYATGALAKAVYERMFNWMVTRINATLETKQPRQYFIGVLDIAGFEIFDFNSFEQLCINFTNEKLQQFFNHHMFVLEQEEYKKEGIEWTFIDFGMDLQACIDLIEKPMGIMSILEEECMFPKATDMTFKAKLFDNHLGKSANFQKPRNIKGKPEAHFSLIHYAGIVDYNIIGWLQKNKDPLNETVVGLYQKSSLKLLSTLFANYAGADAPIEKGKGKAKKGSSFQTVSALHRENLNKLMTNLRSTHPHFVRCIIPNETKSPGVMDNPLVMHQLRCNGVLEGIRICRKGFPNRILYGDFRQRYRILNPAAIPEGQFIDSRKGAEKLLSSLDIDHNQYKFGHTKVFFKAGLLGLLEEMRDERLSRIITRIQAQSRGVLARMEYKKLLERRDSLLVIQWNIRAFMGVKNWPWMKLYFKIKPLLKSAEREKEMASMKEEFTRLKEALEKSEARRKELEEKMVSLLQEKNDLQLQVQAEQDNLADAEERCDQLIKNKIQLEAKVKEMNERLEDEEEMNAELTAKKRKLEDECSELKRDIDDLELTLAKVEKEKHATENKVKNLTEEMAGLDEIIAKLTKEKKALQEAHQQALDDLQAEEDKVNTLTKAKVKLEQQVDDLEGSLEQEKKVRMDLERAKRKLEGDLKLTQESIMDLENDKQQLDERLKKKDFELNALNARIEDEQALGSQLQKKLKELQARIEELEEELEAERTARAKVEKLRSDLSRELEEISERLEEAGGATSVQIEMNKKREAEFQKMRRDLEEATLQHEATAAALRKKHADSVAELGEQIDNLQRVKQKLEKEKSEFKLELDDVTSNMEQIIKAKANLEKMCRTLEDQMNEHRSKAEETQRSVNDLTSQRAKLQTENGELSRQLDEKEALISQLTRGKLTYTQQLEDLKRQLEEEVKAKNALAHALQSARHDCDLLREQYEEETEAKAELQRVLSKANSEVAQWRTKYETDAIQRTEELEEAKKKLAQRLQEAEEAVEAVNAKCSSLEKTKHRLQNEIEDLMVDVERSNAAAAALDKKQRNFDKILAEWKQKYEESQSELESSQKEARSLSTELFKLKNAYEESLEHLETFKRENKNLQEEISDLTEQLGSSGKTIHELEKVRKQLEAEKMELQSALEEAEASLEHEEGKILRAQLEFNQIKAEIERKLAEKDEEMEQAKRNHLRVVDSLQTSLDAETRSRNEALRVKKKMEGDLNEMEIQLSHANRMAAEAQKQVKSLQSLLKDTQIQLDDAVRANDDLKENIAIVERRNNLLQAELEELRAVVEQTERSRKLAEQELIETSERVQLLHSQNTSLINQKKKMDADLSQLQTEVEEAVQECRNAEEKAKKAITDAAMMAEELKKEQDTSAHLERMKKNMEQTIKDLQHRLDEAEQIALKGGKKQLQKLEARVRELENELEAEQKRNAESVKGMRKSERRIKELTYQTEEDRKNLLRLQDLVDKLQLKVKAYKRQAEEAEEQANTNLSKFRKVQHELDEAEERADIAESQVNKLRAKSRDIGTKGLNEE
# Chain of cardiac actin and myosin (P08590 whole entry partner): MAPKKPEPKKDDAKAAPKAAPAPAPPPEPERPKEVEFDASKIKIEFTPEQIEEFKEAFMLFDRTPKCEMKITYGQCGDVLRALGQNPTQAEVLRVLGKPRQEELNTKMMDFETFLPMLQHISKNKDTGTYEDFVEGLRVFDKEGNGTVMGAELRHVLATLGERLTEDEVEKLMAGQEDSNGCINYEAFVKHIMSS
compound,measurement,setting,value
"Cn1cc(S(=O)(=O)[C@@](C)(F)C2CCN(C(=O)Nc3ccon3)CC2)c(C(F)F)n1 [Compound I, (R)-4-(1-((3-(difluoromethyl)-1-methyl-1H-pyrazol-4-yl)sulfonyl)-1-fluoroethyl)-N-(isoxazol-3-yl)piperidine-1-carboxamide]",bioavailability,"[1]; beagle, dog, plasma, po, single dose <3 mg/kg, read-out: oral bioavailability",~100%
same,bioavailability,"[1]; beagle, dog, plasma, oral 10 mg/kg, micronized (Dv50=3.2 μm), read-out: bioavailability",> 100%
same,bioavailability,"[1]; beagle, dog, plasma, oral 100 mg, Dv50=46 μm, read-out: bioavailability",~40%
same,Vd,"[1]; beagle, plasma, 1-compartmental model analysis of in vivo data in dog",1.51 L/kg
same,clearance,"[1]; beagle, plasma, 1-compartmental model analysis of in vivo data in dog, read-out: CL (Dog) (converted)",1.58 mL/min/kg
same,bioavailability,"[1]; single oral dose 25 mg (3 mg/kg) or lower, regardless of particle size",approximately 100%
same,crossbridge detachment (measured as ADP release),cardiac actin and myosin,does not inhibit crossbridge detachment
same,crossbridge formation (measured as phosphate release),cardiac actin and myosin; between cardiac actin and myosin,increases crossbridge formation
same,AUC0-∞,"[2]; SAD Cohort 1, 175 mg (n = 8)","53,800 h × ng/mL"
same,AUC0-∞,"[2]; SAD Cohort 1, 350 mg (n = 8)","103,000 h × ng/mL"
same,AUC0-∞,"[2]; SAD Cohort 1, 525 mg (n = 2)","127,000 h × ng/mL"
same,Cmax,"[2]; 175 mg, 175 mg single dose, read-out: Cmax, mean (SD)",1510 ng/mL
same,Tmax,[2]; [3],4.93 h
same,AUC(0-t),[2]; [3],27 µg·h/mL
same,Cmax,"[2]; 175 mg, SAD Cohort 1, 175 mg (n = 8), read-out: Cmax",1510 ng/mL
same,Cmax,"[2]; 350 mg, 350 mg single dose, read-out: Cmax, mean (SD)",2760 ng/mL
same,Tmax,[2]; [4],6.15 h
same,AUC(0-t),[2]; [4],50.5 µg·h/mL
same,Cmax,"[2]; 350 mg, SAD Cohort 1, 350 mg (n = 8), read-out: Cmax",2760 ng/mL
same,Tmax,[2]; [5],4.05 h
same,AUC(0-t),[2]; [5],70.1 µg·h/mL
same,Cmax,"[2]; 350 mg, SAD Cohort 1, 4th dose 350 mg (n = 1), read-out: Cmax",3590 ng/mL
same,Tmax,[2]; [6],9 h
same,AUC(0-t),[2]; [6],162 µg·h/mL
same,Cmax,"[2]; 400 mg, SAD Cohort 2, 400 mg split dose (n = 4), read-out: Cmax",5460 ng/mL
same,Tmax,[2]; [7],12 h
same,AUC(0-t),[2]; [7],79.2 µg·h/mL
same,Cmax,"[2]; 450 mg, SAD Cohort 1, Split dose 450 mg (n = 1), read-out: Cmax",4420 ng/mL
same,Tmax,[2]; [8],8.5 h
same,AUC(0-t),[2]; [8],191 µg·h/mL
same,Cmax,"[2]; 500 mg, SAD Cohort 2, 500 mg split dose (n = 4), read-out: Cmax",5880 ng/mL
same,Cmax,"[2]; 525 mg, 525 mg single dose, read-out: Cmax, mean (SD)",2720 ng/mL
same,Tmax,[2]; [9],5.74 h
same,AUC(0-t),[2]; [9],54 µg·h/mL
same,Cmax,"[2]; 525 mg, SAD Cohort 1, 525 mg (n = 2), read-out: Cmax",2720 ng/mL
same,Tmax,[2]; [10],8.93 h
same,AUC(0-t),[2]; [10],97.9 µg·h/mL
same,Cmax,"[2]; 550 mg, SAD Cohort 1, Split dose 550 mg (n = 2), read-out: Cmax",5280 ng/mL
same,AUC(0-inf),"[2]; 175 mg single dose, read-out: AUC0-∞, mean (SD)",53.8 µg·h/mL
same,AUC(0-inf),"[2]; 350 mg single dose, read-out: AUC0-∞, mean (SD)",103 µg·h/mL
same,AUC(0-inf),"[2]; 525 mg single dose, read-out: AUC0-∞, mean (SD)",127 µg·h/mL
same,half-life,"[2]; HFrEF patients (Cohort 1), read-out: half-life",20 to 25 h
same,half-life,"[2]; SAD Cohort 1, 175 mg (n = 8), read-out: t½ (converted)",22 h
same,half-life,"[2]; SAD Cohort 1, 350 mg (n = 8), read-out: t½ (converted)",21 h
same,half-life,"[2]; SAD Cohort 1, 525 mg (n = 2), read-out: t½ (converted)",24.7 h
same,AUC(0-inf),"[2]; SAD Cohort 1, Split dose 450 mg (n = 1), read-out: AUC0-∞",235 µg·h/mL
same,half-life,"[2]; SAD Cohort 1, Split dose 450 mg (n = 1), read-out: t½ (converted)",30.6 h
same,AUC(0-inf),"[2]; SAD Cohort 1, Split dose 550 mg (n = 2), read-out: AUC0-∞",213 µg·h/mL
same,half-life,"[2]; SAD Cohort 1, Split dose 550 mg (n = 2), read-out: t½ (converted)",21.5 h
same,AUC(0-inf),"[2]; SAD Cohort 2, 400 mg split dose (n = 4), read-out: AUC0-∞",192 µg·h/mL
same,half-life,"[2]; SAD Cohort 2, 400 mg split dose (n = 4), read-out: t½ (converted)",24.1 h
same,AUC(0-inf),"[2]; SAD Cohort 2, 500 mg split dose (n = 4), read-out: AUC0-∞",231 µg·h/mL
same,half-life,"[2]; SAD Cohort 2, 500 mg split dose (n = 4), read-out: t½ (converted)",24 h
same,"Plasma concentration, Mean",[2]; group <2000 ng/mL,1390 ng/mL
same,"Plasma concentration, Median",[2]; group <2000 ng/mL,1307 ng/mL
same,"Plasma concentration, Mean",[2]; group ≥2000 ng/mL,3823 ng/mL
same,"Plasma concentration, Median",[2]; group ≥2000 ng/mL,3795 ng/mL
